From US20110144014A1, “CYTOKINE RECEPTOR MODULATORS AND USES THEREOF” (CENTRE HOSPITALIER UNIVERSITAIRE SAINTE-JUSTINE, priority 2005, published 2011)
Where a SMILES comes first, the peptide text is derived from it. [ ]: non-standard residue; d: D form.

What was measured:
IL-1R/IL-1RacP [1] = molecular target: T1, IL-1R/IL-1RacP (Sus scrofa, UniProt A0A5G2QSI4); test: Vasomotricity of piglet pial vessels (IL-1β induced vasodilation); conditions: vasodilation induced by IL-1
T1 construct: Slices of brain exposing the pial vessels; from tissue; host or cells: piglet brain slices, pial vessels
T1 sequence (A0A5G2QSI4 21-572): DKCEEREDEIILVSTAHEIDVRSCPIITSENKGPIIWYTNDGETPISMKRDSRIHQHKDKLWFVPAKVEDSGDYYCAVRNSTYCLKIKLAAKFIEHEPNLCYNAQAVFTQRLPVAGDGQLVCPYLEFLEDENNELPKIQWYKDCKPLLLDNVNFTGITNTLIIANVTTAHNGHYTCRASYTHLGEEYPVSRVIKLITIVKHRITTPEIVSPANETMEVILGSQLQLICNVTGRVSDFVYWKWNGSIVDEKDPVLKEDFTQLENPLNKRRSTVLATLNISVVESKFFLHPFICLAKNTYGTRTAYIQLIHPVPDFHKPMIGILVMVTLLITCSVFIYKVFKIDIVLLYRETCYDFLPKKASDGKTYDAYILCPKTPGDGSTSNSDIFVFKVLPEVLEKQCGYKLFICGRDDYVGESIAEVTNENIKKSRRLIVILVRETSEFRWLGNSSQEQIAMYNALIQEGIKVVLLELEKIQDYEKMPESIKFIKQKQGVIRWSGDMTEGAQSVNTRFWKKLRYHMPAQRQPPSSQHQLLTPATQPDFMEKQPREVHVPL
Protocol: In another experiment, vasomotricity variation of piglets pial vessels was studied to further evaluate the particular effect of cytokine receptor subfragments on the vasodilatator effect of IL-1β. Brains were dissected from Yorkshire piglets. Slices of brain exposing the pial vessels were pinned to a wax base of a 20 ml bath containing Krebs buffer (pH 7.4) equilibrated with 95% O2-5% CO2 and maintained at 37° C. Microvessels were visualized and recorded using a video camera mounted on a dissecting microscope. Vascular diameter was measured using a digital image analyzer and the images were recorded before and after topical application of constricting agent U46619 at 10^−7M. After stabilization of the vasomotricity, IL-1 ? was added until stabilization of vasodilatation. Peptides were then injected at different concentrations from 10^−10 to 10^−5M. Reversal of vasodilatation (i.e., vasoconstriction) was visualized and measured as described above. IL-1 ? induced vasodilatation in the microvasculature of the piglet brain was observed. Examples of the inhibitory activity of cytokine subfragment peptides are given below.

IL-1R/IL-1RacP [2] = molecular target: T2, IL-1R/IL-1RacP (Rattus norvegicus, UniProt Q02955+Q63621); test: PGE2 levels in rat blood serum after IL-1β; type: in vivo; conditions: peptide injected directly in the stomach
T2 construct: 300 g Sprague-Dawley rats were anesthetized with isoflurane; from tissue; host or cells: whole animal (Sprague-Dawley rat)
T2 sequence (Q02955 20-576): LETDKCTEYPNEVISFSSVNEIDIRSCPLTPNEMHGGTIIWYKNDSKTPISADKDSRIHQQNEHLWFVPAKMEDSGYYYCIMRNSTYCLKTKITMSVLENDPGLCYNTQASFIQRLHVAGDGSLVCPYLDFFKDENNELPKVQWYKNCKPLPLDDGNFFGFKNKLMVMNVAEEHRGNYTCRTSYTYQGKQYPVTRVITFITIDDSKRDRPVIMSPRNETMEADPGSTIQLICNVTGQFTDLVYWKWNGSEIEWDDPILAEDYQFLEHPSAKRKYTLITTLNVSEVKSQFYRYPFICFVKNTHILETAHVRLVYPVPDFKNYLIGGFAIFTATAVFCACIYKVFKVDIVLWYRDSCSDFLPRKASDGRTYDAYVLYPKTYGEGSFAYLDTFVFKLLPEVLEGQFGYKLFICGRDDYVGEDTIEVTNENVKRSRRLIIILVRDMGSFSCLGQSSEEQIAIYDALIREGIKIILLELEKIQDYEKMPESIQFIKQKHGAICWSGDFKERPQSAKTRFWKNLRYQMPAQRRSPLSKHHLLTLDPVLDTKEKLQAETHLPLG
T2 sequence (Q63621 21-570): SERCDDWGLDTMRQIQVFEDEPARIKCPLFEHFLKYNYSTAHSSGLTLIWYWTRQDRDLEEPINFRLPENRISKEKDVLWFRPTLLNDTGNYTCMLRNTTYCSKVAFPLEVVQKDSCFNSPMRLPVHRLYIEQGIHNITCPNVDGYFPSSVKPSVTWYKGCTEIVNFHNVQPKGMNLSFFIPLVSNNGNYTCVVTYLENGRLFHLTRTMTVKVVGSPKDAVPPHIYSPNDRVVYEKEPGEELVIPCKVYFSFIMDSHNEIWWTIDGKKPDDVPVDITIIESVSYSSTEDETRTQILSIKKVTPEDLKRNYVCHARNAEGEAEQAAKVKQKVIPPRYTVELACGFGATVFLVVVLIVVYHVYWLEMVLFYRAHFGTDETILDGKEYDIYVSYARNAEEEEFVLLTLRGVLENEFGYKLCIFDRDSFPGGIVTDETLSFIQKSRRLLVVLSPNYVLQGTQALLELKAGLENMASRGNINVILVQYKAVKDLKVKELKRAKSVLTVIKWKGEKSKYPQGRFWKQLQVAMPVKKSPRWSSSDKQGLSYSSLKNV
Protocol: Another way of assessing the effect of cytokine receptor subfragments on IL-1R activity in vivo is by measuring PGE2 levels in rat blood serum. Rat blood samples were collected from in vivo experiments (e.g., protocol for IL-1 induced hypotension) and centrifuged at maximum speed for 15 minutes. The serum was then passed through a Waters purification column to isolate the lipidic part. Samples were evaporated and PGE2 quantities were determined with a radioimmuno assay (RIA) using a commercial kit (Cederlane).
The API-101 derivatives, API-101.10 (and others) were also tested to assess whether they could reverse the physiological actions of the natural ligand in vivo by injecting the derivative through the jugular or directly into the stomach (to verify the stability of the peptide through the digestive tract). Sprague-Dawley rats (300 g) were anesthetized with isoflurane (2.5-4%). The natural ligand (IL-1β) or vehicle (saline) was injected through the jugular vein (5 μg/kg). […] Arterial blood pressure and heart rate were continuously monitored (Gould) while temperature and blood gases (Radiometer) were measured for routine analysis as previously described (Li et al., Am. J. Physiol. 273:R1283-R1290, 1997; Hardy et al., Pediatr. Res. 46:375-382, 1999; Najarian et al., Circ. Res. 87:1149-1156, 2000). […]

SMILES: CC(C)C[C@@H](NC(=O)[C@@H](CCC(=O)O)NC(=O)[C@H](NC(=O)[C@H](NC(=O)[C@@H](Cc1ccc(O)cc1)NC(=O)[C@H](N)CCCNC(=N)N)[C@H](C)O)C(C)C)C(=O)N[C@H](C)C(N)=O [API-101.10, RYTVELA] (H-[dR][dY][dT][dV][dE][dL][dA]-NH2; N-terminus and C-terminus assumed)
- potency relative to API-101 (IL-1R/IL-1RacP [1]): 100 fold
- prevention of PGE2 synthesis in vivo (IL-1R/IL-1RacP [2]): Higher inhibition
